Assay results from US11596620B2, “Formulations with reduced oxidation” (Genentech, Inc., priority 2013, dated 2023).

Experiments:
[1] = H2O2 generation by free L-Trp upon light exposure, Amplex assay; assay type: physicochemical
Experimental: It was previously reported that L-Trp produced H2O2 via superoxide ion and in a sub-stoichiometric fashion while antibodies under similar conditions were producing catalytic amounts (Wentworth et al., Science 293(5536):1806-11 (2001); McCormick et al., Journal of the American Chemical Society 100:312-313 (1978)). To test the susceptibility of free L-Trp under pharmaceutically relevant conditions, such as under both ICH and ambient light conditions, formulations comprising 0.32 mM to 7.5 mM of L-Trp were exposed for 3 hours at 250 W/m^2 UV light and about 150 k lux visible light. Samples were taken and analyzed immediately via the Amplex assay to detect the amount of H2O2 generated under these conditions. […] When L-Trp was incubated with a combination of 50 mM NaN3 and 150 U superoxide dismutase (SOD) or SOD alone, significant amounts of H2O2 were still detected in the samples not containing NaN3.

[2] = Cyclic voltammetry (CV) screening assay, oxidation potential; assay type: physicochemical
Experimental: The oxidation/reduction characteristics of the compounds were investigated. Several compounds, including L-Trp and derivatives, were evaluated for the protection of Trp oxidation in proteins using cyclic voltammetry (CV) and rank ordered based on their oxidation potentials (Table 2). Specifically, the candidate antioxidants were dissolved in deionized water and then added to a 0.2 M lithium perchlorate electrolyte solution. […] Solutions were scanned from −0.10 V to +1.50 V at a scan rate of either 100 or 500 mV/sec. The analytical cell was purged for four minutes with nitrogen before scanning of each antioxidant solution. The input was a linear scan of the potential of a working electrode, and the output was measurement of the resulting current. […] Redox reactions were characterized by sharp increases or decreases in current (peaks). The potential at which an oxidation reaction occurred was referred to as the anodic peak potential (or oxidation potential), and the potential at which a reduction occurred was referred to as is the cathodic peak (or reduction) potential.

For `N[C@@H](Cc1c[nH]c2ccccc12)C(=O)O` [L-Trp, L-tryptophan], the “H2O2 generated upon light exposure” value ([1]; 0.32 mM to 7.5 mM L-Trp, 3 hours at 250 W/m^2 UV light and about 150 k lux visible light) was “large quantity of H2O2”, the “H2O2 generation in the presence of 50 mM sodium azide” value ([1]; 3 hours at 250 W/m^2 UV light, 50 mM sodium azide) was “reduced greatly” and the “Oxidation Potential” value ([2]; anodic peak potential, glassy carbon working electrode, 0.2M lithium perchlorate) was 0.938 V vs Ag/AgCl. For the same compound, the “Oxidation Potential” value ([2]; cyclic voltammetry, 0.2 M lithium perchlorate) was 0.938 V vs Ag/AgCl.
